Test results published in patent publication US11982675B2, “Method of assessing ABC transporter activity using fluorescent dye accumulation assay” (CELLPHARMA KFT., priority 2017, dated 2024).
Residue numbers refer to the chain shown, from its start. One block for each compound: values may come before it.

Tests used:
Format in all cases: cell-based
[1] = target: T1, ABCG2 (Homo sapiens, UniProt Q9UNQ0); experiment: Mitoxantrone (MX) accumulation by flow cytometry, ABCG2-expressing PLB and A431 cells; set-up: expressed in transfected cells; host or cells: PLB-985 and A431 cells (retroviral transduction); details: control and ABCG2 expressing PLB and A431 cells, 1 μM MX, 60 minutes
T1 sequence (Q9UNQ0 1-655): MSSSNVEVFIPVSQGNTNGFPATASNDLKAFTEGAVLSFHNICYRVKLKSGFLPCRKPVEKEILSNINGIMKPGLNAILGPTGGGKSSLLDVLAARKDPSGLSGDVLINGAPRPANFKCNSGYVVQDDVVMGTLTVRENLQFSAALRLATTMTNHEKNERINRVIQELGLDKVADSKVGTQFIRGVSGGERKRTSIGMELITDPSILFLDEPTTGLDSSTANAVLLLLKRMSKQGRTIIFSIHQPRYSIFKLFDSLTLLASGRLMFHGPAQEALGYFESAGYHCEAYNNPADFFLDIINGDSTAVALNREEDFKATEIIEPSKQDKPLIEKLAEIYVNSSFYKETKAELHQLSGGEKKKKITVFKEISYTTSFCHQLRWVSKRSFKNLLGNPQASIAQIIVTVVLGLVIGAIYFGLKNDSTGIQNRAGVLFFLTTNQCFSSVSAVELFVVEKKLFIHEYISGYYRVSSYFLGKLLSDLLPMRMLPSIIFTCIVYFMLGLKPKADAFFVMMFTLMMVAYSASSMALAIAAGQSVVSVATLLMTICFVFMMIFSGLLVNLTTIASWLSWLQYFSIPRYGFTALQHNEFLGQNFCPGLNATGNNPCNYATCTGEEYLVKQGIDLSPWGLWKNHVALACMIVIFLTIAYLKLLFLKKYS

[2] = target: T2, ABCC1 (Homo sapiens, UniProt P33527); experiment: PhenGreen (PG) accumulation by flow cytometry, ABCC1-expressing HL-60 and HEK cells
T2 construct: expressed in transfected cells; host or cells: HL-60 and HEK-293 cells (retroviral transduction)
Method: (§1) In order to follow the time-dependent accumulation of PG, 5×10^5 cells were washed twice with 1 mL DPBS (1 g/L D-glucose with phosphate buffered saline), then pre-incubated in the uptake buffer (1 mM EDTA in DPBS) for 10 minutes at 37° C. Thereafter the cells were incubated in the uptake buffer with various concentrations of PhenGreen SK diacetate (PGD), with or without transporter inhibitor, at 37° C., for 1-60 minutes. Dye uptake was stopped by the addition of 150 μl ice-cold EDTA-DPBS, the cells were kept on ice until the measurements (see FIG. 12.). […]
(§2) The cells (5×10^5) were incubated with 0.5 μM PGD or 1 μM (Mx) with or without inhibitors, for 30 (PGD) or 60 (Mx) minutes at 37° C. The reaction was stopped by the addition of ice-cold EDTA-DPBS and fluorescence was measured as described above.
(§3) All experiments were performed at least three times. […] Results were expressed as median±standard deviation. The MDR activity factor % (MAF %—see refs [Homolya L et al. Br J Cancer. 1996; Holló Z et al. Anticancer Res. 1998; 18: 2981-7., Sarkadi et al. U.S. Pat. No. 5,872,014 1999]) was calculated as follows: MAF %=(((MFIinh−MFI0)/MFIinh)×100), wherein MFIinh and MFI0 are the median fluorescence intensity (MFI) with (inh) or without (0) inhibitor. […]

[3] = system: PLB, HEK or A431 cells; experiment: Cell viability assay after PGD loading; details: PGD loading 30 min at 37° C.; PLB cells counted for 9 days, HEK or A431 cells cultured 72 hours
Method: Control and ABCG2 expressing PLB-985 cells (1×10^6) were pre-incubated in the uptake buffer for 10 minutes at 37° C., then incubated with or without 0.5 μM PGD for 30 minutes at 37° C. The PGD-treated cells were sorted based on PG fluorescence by FACS Aria III Cell sorter (BD Bioscience, San Jose, CA, with 488 nm blue laser excitation and 530/30 nm emission). The sorted cells were suspended in 3 mL RMPI media in 6 well plates and live cell number was measured each day, dead cells were excluded by TO-PRO™-3 Iodide.
In order to estimate the EC50 values, HEK or A431 cells were treated with […] for 30 min at 37° C. in the EDTA-DPBS buffer, then washed and cultured in 2 mL DMEM media in 12 well plates for 72 hours. […]
In the first set of these experiments (FIG. 7, Panel A) we used control and ABCG2 expressing PLB cells, incubated in the PGD loading media with or without 0.5 μM PGD for 30 minutes at 37° C. The PGD-treated cells were then sorted based on PG fluorescence by flow cytometry, and the cells were resuspended in RPMI media. […]
In the second set of experiments HEK or A431 cells were treated with the indicated concentrations of PGD for 30 min at 37° C. in the loading media, then washed and cultured in normal cell culturing media for 72 hours. Live cell number was determined by flow cytometry, dead cells excluded by TO-PRO-3 staining (see Methods). […]

[4] = system: human peripheral blood mononuclear cells (PBMCs); experiment: Functional test of ABCG2, ABCB1 or ABCC1 transporter function in PBMCs
Method: Freshly drawn venous blood samples were collected from healthy donors into EDTA coated tubes. Peripheral blood mononuclear cells (PBMCs) were isolated by Ficoll-histopaque density gradient centrifugation. The PBMCs were washed twice with 1 mL EDTA-DPBS uptake buffer (1 mM EDTA and 1 g/L D-glucose with phosphate buffered saline). The various cell populations can be stained with cluster of differentiation markers (CD markers), conjugated by e.g. APC, APC-Cy7, Pacific blue, or other fluorescent marker. After CD labeling the cells were incubated in the uptake buffer with 1 μM PhenGreen SK diacetate (PGD), or 0.25 μM Calcein-AM (CaAM) or 1 μM mitoxantrone (Mx), with or without selective transporter inhibitors, for 30 minutes (PGD and CaAM) or 60 minutes (Mx) at 37° C. […] The reaction was stopped by the addition of ice-cold EDTA-DPBS and fluorescence was measured as described above.
[…] cell populations, i.e. granulocytes, monocytes and lymphocytes have been visualized by flow cytometry as described in the Materials and Methods chapter (Panel A). […] MDR activity factors were calculated as described above based on the measurements of the accumulation of the three fluorescent dyes, with or without inhibitors, in the respective leukocyte populations (Panel C).

[5] = target: T1, ABCG2; experiment: PhenGreen (PG) accumulation by flow cytometry, ABCG2-expressing PLB and A431 cells; set-up: expressed in transfected cells; host or cells: PLB-985 and A431 cells (retroviral transduction)
Method: In order to follow the time-dependent accumulation of PG, 5×10^5 cells were washed twice with 1 mL DPBS (1 g/L D-glucose with phosphate buffered saline), then pre-incubated in the uptake buffer (1 mM EDTA in DPBS) for 10 minutes at 37° C. Thereafter the cells were incubated in the uptake buffer with various concentrations of PhenGreen SK diacetate (PGD), with or without transporter inhibitor, at 37° C., for 1-60 minutes. Dye uptake was stopped by the addition of 150 μl ice-cold EDTA-DPBS, the cells were kept on ice until the measurements (see FIG. 12.). For assessing the PGD concentration dependence of PG accumulation, 5×10^5 PLB-985 or A431 cells, expressing the ABCB1 or ABCG2 transporters, or HL-60 and HEK-293 cells, expressing ABCC1, were washed twice with 1 mL DPBS, then pre-incubated in EDTA-DPBS medium for 10 minutes at room temperature. The cells were incubated in EDTA-DPBS with 0.1-5 μM of PGD at 37° C. for 30 minutes. Dye uptake was stopped by the addition of 150 μl ice-cold EDTA-DPBS. The cells were kept on ice until the measurement.
as §2
All experiments were performed at least three times. Data analysis was performed using FACSDiva v6.1.3 Software (BD Bioscience, San Jose, CA), flow cytometry figures were prepared with the Attune Acoustic Focusing Cytometer v1.25 Software (Applied Biosystems, Life Technologies, Carlsbad, CA, USA). Results were expressed as median±standard deviation. The MDR activity factor % (MAF %—see refs [Homolya L et al. Br J Cancer. 1996; Holló Z et al. Anticancer Res. 1998; 18: 2981-7., Sarkadi et al. U.S. Pat. No. 5,872,014 1999]) was calculated as follows: MAF %=(((MFIinh−MFI0)/MFIinh)×100), wherein MFIinh and MFI0 are the median fluorescence intensity (MFI) with (inh) or without (0) inhibitor. The EC50 analysis was carried out using the Origin 8.6. software.

[6] = target: T3, ABCB1 (Homo sapiens, UniProt P08183); experiment: PhenGreen (PG) accumulation by flow cytometry, ABCB1-expressing PLB and A431 cells
T3 construct: expressed in transfected cells; host or cells: PLB-985 and A431 cells (retroviral transduction)
Method: as §1, §2, §3

[7] = target: T1, ABCG2; experiment: PG accumulation examined by confocal microscopy in PLB and PLB-ABCG2 cells; set-up: expressed in transfected cells; host or cells: PLB-985 cells (retroviral transduction); details: PLB-ABCG2 cells, 0.5 μM PGD, 30 minutes, no inhibitor
Method: For confocal microscopy the cells (5×10^5) were washed twice with 1 mL DPBS, then pre-incubated with 1 μg/mL Alexa Fluor-647 conjugated wheat-germ agglutinin (WGA-A647) in uptake buffer for 5 minutes at room temperature. Thereafter the cells were incubated with 0.5 μM PGD with or without transporter inhibitors for 30 minutes at 37° C. PGD uptake was stopped by washing the cells with 1 mL DPBS. The images were acquired by a Zeiss LSCM 710 microscope using a 63×NA=1.4 Plan Apo objective. Images were captured and analyzed by Zen2 (Blue edition) Software.
In order to examine the wider applicability of the PGD-based assay for functional ABCG2 transporter studies, we examined PG accumulation in control PLB cells and in PLB cells expressing ABCG2, by using fluorescence (confocal) microscopy.
In these experiments, in order to label the plasma membrane compartment of the cells, we also included the staining of live PLB cells with a fluorescent anti-WGA antibody.

[8] = target: T4, ABCG2 (Homo sapiens, UniProt Q9UNQ0, K86M); experiment: PhenGreen (PG) accumulation by flow cytometry, ABCG2-expressing PLB and A431 cells; details: PLB cells expressing ABCG2-K86M
T4 construct: expressed in transfected cells; host or cells: PLB-985 and A431 cells (retroviral transduction)
T4 sequence (Q9UNQ0 1-655 K86M): T1 sequence (Q9UNQ0 1-655) with K86M
Method: as §1, §2, §3

T2 sequence (P33527 whole entry): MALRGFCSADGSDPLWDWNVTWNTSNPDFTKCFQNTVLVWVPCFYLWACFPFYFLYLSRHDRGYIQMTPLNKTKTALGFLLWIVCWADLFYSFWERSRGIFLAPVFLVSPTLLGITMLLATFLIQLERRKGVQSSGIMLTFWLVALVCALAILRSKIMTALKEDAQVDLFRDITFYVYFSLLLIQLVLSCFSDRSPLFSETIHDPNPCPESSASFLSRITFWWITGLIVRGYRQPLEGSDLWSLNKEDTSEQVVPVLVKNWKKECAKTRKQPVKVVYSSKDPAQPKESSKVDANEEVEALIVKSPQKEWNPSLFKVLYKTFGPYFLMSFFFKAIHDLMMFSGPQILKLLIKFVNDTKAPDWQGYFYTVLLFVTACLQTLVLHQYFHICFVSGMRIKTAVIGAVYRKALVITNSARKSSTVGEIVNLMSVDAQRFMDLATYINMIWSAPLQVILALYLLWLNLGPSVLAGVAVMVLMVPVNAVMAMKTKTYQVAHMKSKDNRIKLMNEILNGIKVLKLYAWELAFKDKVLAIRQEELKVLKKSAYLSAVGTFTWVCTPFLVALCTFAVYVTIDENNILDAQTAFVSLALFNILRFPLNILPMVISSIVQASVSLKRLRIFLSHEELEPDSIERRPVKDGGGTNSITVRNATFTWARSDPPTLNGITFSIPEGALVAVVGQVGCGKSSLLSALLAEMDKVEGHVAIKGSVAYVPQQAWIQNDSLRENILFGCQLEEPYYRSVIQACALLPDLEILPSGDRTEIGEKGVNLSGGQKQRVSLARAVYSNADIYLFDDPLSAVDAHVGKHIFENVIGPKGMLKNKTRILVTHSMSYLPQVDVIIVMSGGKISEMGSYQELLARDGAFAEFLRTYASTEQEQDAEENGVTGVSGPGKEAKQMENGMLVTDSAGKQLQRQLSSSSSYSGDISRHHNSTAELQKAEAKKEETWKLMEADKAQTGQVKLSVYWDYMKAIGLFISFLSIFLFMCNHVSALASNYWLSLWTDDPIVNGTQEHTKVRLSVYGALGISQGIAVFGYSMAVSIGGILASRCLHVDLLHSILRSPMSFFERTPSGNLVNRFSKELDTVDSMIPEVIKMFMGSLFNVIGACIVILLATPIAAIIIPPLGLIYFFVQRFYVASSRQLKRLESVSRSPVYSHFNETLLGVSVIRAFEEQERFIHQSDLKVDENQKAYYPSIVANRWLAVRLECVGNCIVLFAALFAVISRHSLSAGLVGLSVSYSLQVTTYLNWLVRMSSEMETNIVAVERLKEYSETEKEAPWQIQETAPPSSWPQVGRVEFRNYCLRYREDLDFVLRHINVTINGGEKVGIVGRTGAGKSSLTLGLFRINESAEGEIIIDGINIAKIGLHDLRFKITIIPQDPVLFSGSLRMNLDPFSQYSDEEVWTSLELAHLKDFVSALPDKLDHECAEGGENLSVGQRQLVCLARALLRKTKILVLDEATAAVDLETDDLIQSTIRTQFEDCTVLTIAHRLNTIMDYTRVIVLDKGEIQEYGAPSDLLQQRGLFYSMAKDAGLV
T3 sequence (P08183 whole entry): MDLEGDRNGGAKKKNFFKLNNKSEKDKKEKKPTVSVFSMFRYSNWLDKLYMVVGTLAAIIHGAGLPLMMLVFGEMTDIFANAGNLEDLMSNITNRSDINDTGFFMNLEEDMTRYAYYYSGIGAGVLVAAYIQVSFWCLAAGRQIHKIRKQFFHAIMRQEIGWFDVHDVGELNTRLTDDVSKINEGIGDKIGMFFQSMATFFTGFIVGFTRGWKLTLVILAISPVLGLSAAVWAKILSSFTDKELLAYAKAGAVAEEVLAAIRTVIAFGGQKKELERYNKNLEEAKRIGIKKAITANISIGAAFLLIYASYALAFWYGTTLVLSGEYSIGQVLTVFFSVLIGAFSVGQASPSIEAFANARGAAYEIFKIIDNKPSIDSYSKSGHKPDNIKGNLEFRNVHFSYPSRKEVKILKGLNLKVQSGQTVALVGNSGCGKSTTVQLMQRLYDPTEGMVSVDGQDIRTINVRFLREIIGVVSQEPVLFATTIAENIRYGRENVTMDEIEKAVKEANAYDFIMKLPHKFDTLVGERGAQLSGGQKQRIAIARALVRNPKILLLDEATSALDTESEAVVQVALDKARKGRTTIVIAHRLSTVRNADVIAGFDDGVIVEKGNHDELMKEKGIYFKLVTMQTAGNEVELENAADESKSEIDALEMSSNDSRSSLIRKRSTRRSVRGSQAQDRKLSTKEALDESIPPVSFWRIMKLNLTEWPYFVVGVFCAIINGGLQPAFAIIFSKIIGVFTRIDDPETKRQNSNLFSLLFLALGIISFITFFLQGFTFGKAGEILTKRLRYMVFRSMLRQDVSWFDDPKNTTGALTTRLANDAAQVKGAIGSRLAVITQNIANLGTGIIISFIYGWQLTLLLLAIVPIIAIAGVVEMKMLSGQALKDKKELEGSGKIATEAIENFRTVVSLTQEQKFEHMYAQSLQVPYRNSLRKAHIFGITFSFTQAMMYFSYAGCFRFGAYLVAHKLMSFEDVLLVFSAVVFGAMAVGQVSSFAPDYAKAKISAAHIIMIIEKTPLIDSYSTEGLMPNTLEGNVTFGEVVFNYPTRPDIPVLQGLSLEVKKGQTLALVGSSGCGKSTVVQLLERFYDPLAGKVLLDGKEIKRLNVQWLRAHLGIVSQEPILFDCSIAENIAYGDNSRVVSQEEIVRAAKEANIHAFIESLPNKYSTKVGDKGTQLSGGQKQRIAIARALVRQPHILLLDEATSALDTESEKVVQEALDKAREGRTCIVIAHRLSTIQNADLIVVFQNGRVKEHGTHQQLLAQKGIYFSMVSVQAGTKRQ

Compound: O=C1c2c(O)ccc(O)c2C(=O)c2c(NCCNCCO)ccc(NCCNCCO)c21 [MX, mitoxantrone]
- MDR activity factor (MAF) based on MX extrusion [1]: essentially similar results as obtained by using PG accumulation

Compound: CC(=O)Oc1cc2c(cc1Cl)C1(OC(=O)c3cc(C(=O)Nc4cc5cccnc5c5ncccc45)ccc31)c1cc(Cl)c(OC(C)=O)cc1O2 [PGD, PhenGreen SK diacetate]
- applicability for calculating the MDR activity factor, compared with mitoxantrone ([2]; ABCC1 expressing HL-60 cells): similarly or better applicable than MX
- PG accumulation in ABCC1 expressing cells versus control parental cells ([2]; HL-60 and HEK cells, 0.1-5 μM PGD, EDTA-DPBS, 30 minutes at 37° C.): significantly lower levels of PG than their control parental cells
- effect of PG accumulation on cell growth [3]: no measurable effect on the growth of the cells
- transporter substrate activity in mononuclear cell populations ([4]; granulocytes, monocytes and lymphocytes, 1 μM PGD, 30 minutes at 37° C.): active substrate in each cell type
- MAF factor compared with other dyes ([4]; monocytes, ABCG2, ABCB1 and ABCC1 with selective inhibitors): higher MAF factor than Calcein AM and mitoxantrone for each of the transporters
- time in which the increase in cellular PG fluorescence saturated ([5]; PLB cells, 0.5 to 2.5 μM PGD in the media, 37° C.): less than 30 minutes
- effect of ABCG2 protein on accumulated PG fluorescence ([5]; PLB vs PLB-ABCG2 cells, low (below 1 μM) PGD, 30 minutes at 37° C., flow cytometry): major difference in the amount of the accumulated PG fluorescence
- applicability for calculating the MDR activity factor, compared with mitoxantrone ([6]; ABCB1 expressing PLB cells): similarly or better applicable than MX
- PG accumulation in ABCB1 expressing cells versus control parental cells ([6]; PLB and A431 cells, 0.1-5 μM PGD, EDTA-DPBS, 30 minutes at 37° C.): significantly lower levels of PG than their control parental cells

- cytoplasmic PG accumulation (confocal microscopy) [7]: practically did not accumulate PG
- effect of non-functional catalytic mutant ABCG2-K86M on PG accumulation [8]: no effect on PG accumulation
- MDR activity factor (MAF) from PG accumulation in absence or presence of Ko143 ([5]; PLB cells expressing wild-type ABCG2): high activity level
Compound: PhenGreen SK [PG]
